In patent publication US7989466B2, “Methods to inhibit or augment an inflammatory response” (Cambridge Enterprise Limited, priority 1999, dated 2011):
No end group written: not given here.

Tests used:
Assay type in all cases: cell-based
HIV (MN) = assay: HIV infectivity of THP-1 cells, p24gag immunofluorescence; settings: 100 μM peptide, HIV strain MN, 72 hours
Method: (a) HIV (IIIb) replication in cultures of Jurkat T-cells was estimated by measuring the supernatant reverse transcriptase activity two weeks after infection. Peptide 2 and peptide 3 were at 100 μM final concentration and SDF-1α was added at 100 ng/ml final concentration 1 hour prior to exposure to virus. Values are mean±SEM from 12 wells, expressed as the percentage of the reverse transcriptase activity in the supernatant from the control wells. The experiment shown is typical of six separate experiments. (b) HIV (IIIb) infectivity of Jurkat T-cells was estimated by staining cells treated identically to those in (a) for p24^gag expression. Values are mean±S.D. percentage of cells stained for p24gag averaged from 12 fields of view from each of two separate wells. (c) HIV (MN) infectivity of THP-1 cells measured as in (b). MIP-1α was used at 100 ng/ml final concentration. (d) Immunofluorescence micrographs of THP-1 cells 48 hours after exposure to HIV (MN) in the absence (top panel) or presence (lower panel) of 100 μM peptide 3, stained for p24^gag. Several cells in the upper panel, but not the lower panel, show strong, punctuate staining for p24^gag antigen. Both fields of view contain 40-50 cells (assessed by Hoeschst 33345 staining viewed under UV illumination conditions).
Jurkat cells following HIV infection were attached to 8-well chamber slides (Becton-Dickinson) by spinning the slides using a plate rotor in a Labofuge centrifuge (Haeraeus) at 3,000×g for 5 minutes. Attached Jurkat cells or THP-1 cells were then fixed by dipping the slides into ice-cold 70% ethanol for 90 seconds. […] A threshold was then applied to each image which was the lowest threshold that detected <1% of the pixels of an image of uninfected cells stained under identical conditions. The number of objects exceeding this threshold in each field of view were counted. This process, for example, detected 9 objects in the field of view shown in the upper panel of FIG. 54D and 1 object in the field of view shown in the lower panel. […]

[1] = test system: SDF-1α induced human monocyte migration; assay: Human monocyte migration, SDF-1α; settings: n.s. = no statistically significant inhibition
Method: (§1) Agents may also be screened in a chemotactic assay which employs human neutrophils, eosinophils, mast cells, basophils, platelets, lymphocytes or monocytes. For monocytes, 9 mls of fresh blood are transferred to a tube containing 1 ml of 3.8% sodium citrate, and left at room temperature for 15 minutes. Five mls of this anti-coagulated blood are carefully layered over 3.5 ml Polymorphprep® (Nycomed Pharma, Oslo), and centrifuged at 500 g for 35 minutes per the manufacturer's instructions. The top band at the sample/medium interface contains monocytes. The monocytes are carefully removed with a glass pipette, and reconstituted to the original volume (5 ml). The cells are washed with PBS plus 10% fetal calf serum, and centrifuged at 400 g for 10 minutes. The washing step is repeated three times before the cells are counted. Cells are resuspended at 1×10^7 cells/ml in RPMI-1640+10% fetal calf serum (FCS). The monocytes are cultured for two days at 37° C. in a humidified atmosphere of 5% CO2.
(§2) On day 2, the cells are counted, spun down, and reconstituted to 1×10^7 cells/ml in Gey's balanced salt solution+1 mg/ml bovine serum albumin (BSA). […]

[2] = test system: MCP-1 induced human monocyte migration; assay: Human monocyte migration, MCP-1; settings: n.s. = no statistically significant inhibition
Method: as §1
On day 2, the cells are counted, spun down, and reconstituted to 1×10^7 cells/ml in Gey's balanced salt solution+1 mg/ml bovine serum albumin (BSA). Chemotaxis is induced in a 48 or 96-well disposable chemotaxis chamber fitted with a 5-8 μm polycarbonate filter for monocytes, neutrophils or eosinophils, or a 3 μm filter for lymphocytes (Uguccioni et al, Eur. J. Immunol., 25, 64 (1995); Loetscher et al., J. Exy. Med., 184, 569 (1996); Weber et al., J. Immunol., 4166 (1995)) (PVP free, ChemoTX, Neuroprobe Inc., Cabin John, Md.). Twenty-nine μl of chemoattractant or control are added to the lower compartment of each well. The framed filter is aligned with the holes in the corner of the filter frame and placed over the wells. Two and one-half×10^5 monocytes in 25 μl of Gey's balanced salt solution+1 mg/ml BSA are added to the upper compartment. The agent is dissolved in MilliQ water and then serially diluted in the Gey's balanced salt solution. In most cases, the serially diluted agent is added to the upper compartment of the chemotaxis chamber. […]

[3] = test system: TGFβ1 induced human monocyte migration; assay: Human monocyte migration, TGFβ1; settings: n.s. = no statistically significant inhibition
Method: as §1, §2

Sequence	inhibition of HIV infectivity of THP-1 cells, p24gag staining (HIV (MN))	inhibition of HIV infectivity of THP-1 cells, p24gag staining (HIV (MN); listed as second peptide, spanning amino acids 51 to 62 of human MCP-1)	% inhibition at 100 μM versus SDF-1α, human monocyte migration [1]	% inhibition at 100 μM versus MCP-1, human monocyte migration [2]	% inhibition at 100 μM versus TGFβ1, human monocyte migration [3]	% inhibition at 100 μM versus MCP-1, human monocyte migration ([2]; listed as Peptide 2 (SEQ ID NO: 3))
EICADPKQKWVQ [peptide 3(1-12)[MCP-1]]	more than 80%	83±7%	108%	108%	n.s.	–
SYRRITSSKCPKEAV [peptide 2(1-15)[MCP-1]]	28±5%	–	n.s.	20%	n.s.	23%
